Measured values taken from patent US7414071B2, “Methods of treatment with selective EP4 receptor agonists” (Pfizer Inc., priority 2002, dated 2008).

Tests used:
[1] = system: New Zealand White male rabbits; assay: In vivo anesthetized rabbit model (hypotensive effect: mean arterial pressure and heart rate)
Experimental: Methods: New Zealand White male rabbits (3-4 kg) are anesthetized with sodium pentobarbital (30 mg/kg, i.v.) and a surgical plane of anesthesia is maintained by a continuous infusion of sodium pentobarbital (16 mg/kg/hr) via an ear vein catheter. A tracheotomy is performed through a ventral midline cervical incision and the rabbits are ventilated with 100% oxygen using a positive pressure ventilator. Body temperature is maintained at 38.5° C. using a heating pad connected to a YSI temperature controller model 72 (Yellow Springs Instruments, Yellow Springs, […].). Fluid-filled catheters are placed in the right jugular vein (for intravenous drug administration) and in the right carotid artery for arterial pressure monitoring and for blood gas analysis using a model 248 blood gas analyzer (Bayer Diagnostics, Norwood, Mass.). The ventilator is adjusted as needed to maintain blood pH and pCO2 within normal physiological ranges for rabbits. […] Blood is sampled after dosing or during the infusion of the test compound to determine plasma concentrations of the test compounds.
Thus, dosing volumes were 0.2 ml/kg (Group A) subcutaneously or 5 ml/h (Groups B, C, and D) as an intravenous (IV) infusion. The term “mgA” means the number of milligrams adjusted for active compound (e.g. corrected for salt etc.).
Dosing: Four groups (Groups A, B, C, and D) of two rabbits each were dosed as follows.

M. fascicularis primates = assay: In vivo primate model (hypotensive effect: mean arterial pressure and heart rate); conditions: monkeys; for mean arterial pressure (MAP) / heart rate (HR): 0.1 mgA/kg SC bolus, mean of 2; for mean arterial pressure (MAP): baseline 101; for heart rate (HR): baseline 161
[2] = Group D, 1.67 μg/kg/h, 4 hour IV infusion
[3] = Group A, 1 mgA/kg SC, three monkeys
[4] = Group C, 0.1 mgA/kg SC, 2 monkeys

## O=C([O-])c1ccc(CCCN2C(=O)CC[C@@H]2CC[C@@H](O)Cc2cccc(C(F)(F)F)c2)s1.[Na+] [Compound 3M sodium salt]
[1]; Group C, 16.7 μg/kg/hr IV infusion for 4 hours, 90 min, mean of 2, baseline 291
  heart rate (HR): 301 beats/minute
[1]; Group C, 16.7 μg/kg/hr IV infusion for 4 hours, 120 min, mean of 2, baseline 95
  mean arterial pressure (MAP): 85 mm Hg
[1]; Group C, 16.7 μg/kg/hr IV infusion for 4 hours, 120 min, mean of 2, baseline 291
  heart rate (HR): 304 beats/minute
[1]; Group C, 16.7 μg/kg/hr IV infusion for 4 hours, 150 min, mean of 2, baseline 95
  mean arterial pressure (MAP): 85 mm Hg
[1]; Group C, 16.7 μg/kg/hr IV infusion for 4 hours, 150 min, mean of 2, baseline 291
  heart rate (HR): 301 beats/minute
[1]; Group C, 16.7 μg/kg/hr IV infusion for 4 hours, 180 min, mean of 2, baseline 95
  mean arterial pressure (MAP): 85 mm Hg
[1]; Group C, 16.7 μg/kg/hr IV infusion for 4 hours, 180 min, mean of 2, baseline 291
  heart rate (HR): 298 beats/minute
[1]; Group C, 16.7 μg/kg/hr IV infusion for 4 hours, 210 min, mean of 2, baseline 95
  mean arterial pressure (MAP): 89 mm Hg
[1]; Group C, 16.7 μg/kg/hr IV infusion for 4 hours, 210 min, mean of 2, baseline 291
  heart rate (HR): 307 beats/minute
[1]; Group C, 16.7 μg/kg/hr IV infusion for 4 hours, 240 min, mean of 2, baseline 95
  mean arterial pressure (MAP): 89 mm Hg
[1]; Group C, 16.7 μg/kg/hr IV infusion for 4 hours, 240 min, mean of 2, baseline 291
  heart rate (HR): 306 beats/minute
[1]; [2]
  effect on heart rate: no significant change
  effect on mean arterial pressure: no significant change
[1]; Group D, 1.67 μg/kg/hr IV infusion for 4 hours, 5 min, mean of 2, baseline 89
  mean arterial pressure (MAP): 85 mm Hg
[1]; Group D, 1.67 μg/kg/hr IV infusion for 4 hours, 5 min, mean of 2, baseline 260
  heart rate (HR): 258 beats/minute
[1]; Group D, 1.67 μg/kg/hr IV infusion for 4 hours, 10 min, mean of 2, baseline 89
  mean arterial pressure (MAP): 87 mm Hg
[1]; Group D, 1.67 μg/kg/hr IV infusion for 4 hours, 10 min, mean of 2, baseline 260
  heart rate (HR): 260 beats/minute
[1]; Group D, 1.67 μg/kg/hr IV infusion for 4 hours, 15 min, mean of 2, baseline 89
  mean arterial pressure (MAP): 85 mm Hg
[1]; Group D, 1.67 μg/kg/hr IV infusion for 4 hours, 15 min, mean of 2, baseline 260
  heart rate (HR): 262 beats/minute
[1]; Group D, 1.67 μg/kg/hr IV infusion for 4 hours, 30 min, mean of 2, baseline 89
  mean arterial pressure (MAP): 85 mm Hg
[1]; Group D, 1.67 μg/kg/hr IV infusion for 4 hours, 30 min, mean of 2, baseline 260
  heart rate (HR): 262 beats/minute
[1]; Group D, 1.67 μg/kg/hr IV infusion for 4 hours, 60 min, mean of 2, baseline 89
  mean arterial pressure (MAP): 87 mm Hg
[1]; Group D, 1.67 μg/kg/hr IV infusion for 4 hours, 60 min, mean of 2, baseline 260
  heart rate (HR): 255 beats/minute
[1]; Group D, 1.67 μg/kg/hr IV infusion for 4 hours, 90 min, mean of 2, baseline 89
  mean arterial pressure (MAP): 87 mm Hg
[1]; Group D, 1.67 μg/kg/hr IV infusion for 4 hours, 90 min, mean of 2, baseline 260
  heart rate (HR): 253 beats/minute
[1]; Group D, 1.67 μg/kg/hr IV infusion for 4 hours, 120 min, mean of 2, baseline 89
  mean arterial pressure (MAP): 85 mm Hg
[1]; Group D, 1.67 μg/kg/hr IV infusion for 4 hours, 120 min, mean of 2, baseline 260
  heart rate (HR): 246 beats/minute
[1]; Group D, 1.67 μg/kg/hr IV infusion for 4 hours, 150 min, mean of 2, baseline 89
  mean arterial pressure (MAP): 87 mm Hg
[1]; Group D, 1.67 μg/kg/hr IV infusion for 4 hours, 150 min, mean of 2, baseline 260
  heart rate (HR): 246 beats/minute
[1]; Group D, 1.67 μg/kg/hr IV infusion for 4 hours, 180 min, mean of 2, baseline 89
  mean arterial pressure (MAP): 87 mm Hg
[1]; Group D, 1.67 μg/kg/hr IV infusion for 4 hours, 180 min, mean of 2, baseline 260
  heart rate (HR): 246 beats/minute
[1]; Group D, 1.67 μg/kg/hr IV infusion for 4 hours, 210 min, mean of 2, baseline 89
  mean arterial pressure (MAP): 85 mm Hg
[1]; Group D, 1.67 μg/kg/hr IV infusion for 4 hours, 210 min, mean of 2, baseline 260
  heart rate (HR): 247 beats/minute
[1]; Group D, 1.67 μg/kg/hr IV infusion for 4 hours, 240 min, mean of 2, baseline 89
  mean arterial pressure (MAP): 92 mm Hg
[1]; Group D, 1.67 μg/kg/hr IV infusion for 4 hours, 240 min, mean of 2, baseline 260
  heart rate (HR): 257 beats/minute
M. fascicularis primates; Group A, 1 mgA/kg SC
  duration of hypotension: sustained over the 4 hours post-dose
  onset of hypotension: < 2 min
M. fascicularis primates; [3]
  effect on heart rate: transient increase in heart rate
  effect on mean arterial pressure: decrease in mean arterial pressure
M. fascicularis primates; Group C, 0.1 mgA/kg SC
  duration of hypotension: sustained over the 4 hours post-dose
  onset of hypotension: < 4 min
M. fascicularis primates; Group C, 5 min post-dose
  mean arterial pressure (MAP): 91 mm Hg
  heart rate (HR): 203 beats/minute
M. fascicularis primates; Group C, 10 min post-dose
  mean arterial pressure (MAP): 57 mm Hg
  heart rate (HR): 206 beats/minute
M. fascicularis primates; Group C, 15 min post-dose
  mean arterial pressure (MAP): 51 mm Hg
  heart rate (HR): 187 beats/minute
M. fascicularis primates; Group C, 30 min post-dose
  mean arterial pressure (MAP): 53 mm Hg
  heart rate (HR): 190 beats/minute
M. fascicularis primates; Group C, 60 min post-dose
  mean arterial pressure (MAP): 58 mm Hg
  heart rate (HR): 180 beats/minute
M. fascicularis primates; Group C, 90 min post-dose
  mean arterial pressure (MAP): 58 mm Hg
  heart rate (HR): 180 beats/minute
M. fascicularis primates; Group C, 120 min post-dose
  mean arterial pressure (MAP): 62 mm Hg
  heart rate (HR): 183 beats/minute
M. fascicularis primates; Group C, 150 min post-dose
  mean arterial pressure (MAP): 65 mm Hg
  heart rate (HR): 187 beats/minute
M. fascicularis primates; Group C, 180 min post-dose
  mean arterial pressure (MAP): 66 mm Hg
  heart rate (HR): 187 beats/minute
M. fascicularis primates; Group C, 210 min post-dose
  mean arterial pressure (MAP): 71 mm Hg
  heart rate (HR): 191 beats/minute
M. fascicularis primates; Group C, 240 min post-dose
  mean arterial pressure (MAP): 79 mm Hg
  heart rate (HR): 193 beats/minute
M. fascicularis primates; [4]
  effect on heart rate: transient increase in heart rate that returned toward normal but leveled off and remained elevated over the 4 hours post-dose
  effect on mean arterial pressure: decrease in mean arterial pressure
